Laboratory results: US9511048B2, “Use of flavone compound for prevention or treatment of obesity” (INDUSTRY-ACADEMIC COOPERATION FOUNDATION, YONSEI UNIVERSITY, priority 2012, dated 2016)

Key:
3T3-L1 preadipocytes = assay: Inhibition of lipid production, Oil Red O staining of differentiated adipocytes; format: cell-based
Method: 3T3-L1 preadipocytes (American Type Culture Collection (ATCC), Manassas, Va., USA) were cultured in DMEM (Dulbecco's Modified Eagle's Medium) supplemented with 10% bovine calf serum, and seeded into 12-well microtiter plates with a density of 10^5 cells/well. Adipocyte differentiation was induced when the preadipocytes reached approximately 100% confluence after growing two more days at 90% confluence. For the experimental groups, induction of adipocyte differentiation was performed in the presence of 5,7-dimethoxyflavone at the concentration of 5, 10, or 20 μM dissolved in the culture medium containing dexamethasone, IBMX (3-isobutyl-1-methylxanthine), and insulin. Afterwards, cells of the experimental groups were maintained continuously in the presence of the same concentrations of 5,7-dimethoxyflavone dissolved in the culture medium containing 10% FBS and 0.1% insulin, replacing the medium every two days. For comparison, control cells were treated the same way as the cells of the experimental groups except for the 5,7-dimethoxyflavone treatment. On day 10 since induction of differentiation, fully differentiated adipocytes were stained with Oil Red O (Sigma, St. Louis, Mo., USA). Stained lipid droplets in the adipocytes were extracted with 100% isopropanol and subjected to the measurement of the absorbance at 500 nm using a spectrophotometer. […]

[1] = test system: C57BL/6 mice with high-fat diet-induced obesity; assay: Weight-reducing effect in the mouse model of high fat diet-induced obesity; format: in vivo; details: 20 mg/kg oral once a day; for food intake versus control groups: eight weeks; for rate of weight gain at the end of eight weeks compared to the control group: p<0.05
Method: Three week-old C57BL/6 mice were acclimated for one week and fed with high-fat diet (product #D12492, Research Diet Inc., New Brunswick, N.J., USA) for six weeks to induce obesity. Mice were randomly divided into experimental and control groups, in total of four groups, ten per each group. The experimental groups were orally administered with either 5,7-dimethoxyflavone or 5,7,4′-trimethoxyflavone suspended in 0.25% carboxymethyl cellulose at a dose of 20 mg/kg body weight, once a day at regular hours for eight weeks. For comparison, the control groups were orally administered with 0.25% carboxymethyl cellulose only in the same manner as the experimental groups. Food intake and body weight of each sample mouse were measured every week.

[2] = test system: SREBP1c, C/EBP, FAS and ACC expression in 3T3-L1 adipocytes; assay: Western blot of lipogenic transcription factors and enzymes; format: cell-based; details: proteins harvested after eight days
Method: (§1) It was examined whether the expression of proteins involved in lipid production was reduced by 5,7-dimethoxyflavone treatments in 3T3-L1 adipocytes. 3T3-L1 adipocytes were induced to differentiate in the same manner as described in Example 1-1, and were lysed with a RIPA buffered solution containing a proteinase inhibitor cocktail. Protein samples were boiled for 5 minutes, loaded ([…]) on 10% SDS-PAGE gels and separated by electrophoresis. Separated proteins were transferred to the nitrocellulose membranes and subjected to western blot experiments. Protein-transferred membranes were reacted with primary antibodies, rinsed with TBST three times, 10 minutes each. The dilution ratio of primary antibodies was 1:1000. Membranes reacted with primary antibodies were followed with secondary antibody incubation (anti-rabbit horseradish) for 2 hours at room temperature. The dilution ratio of secondary antibodies was 1:5000. Protein bands were visualized with ECL western blotting detection reagents (Amersham, Tokyo, Japan). Proteins were harvested after eight days and subjected to western blot experiments.

[3] = test system: UCP2 and UCP3 expression in 3T3-L1 adipocytes; assay: Western blot of thermogenic proteins; format: cell-based
Method: as §1
Proteins were harvested from the 3T3-L1 adipocytes differentiated as described in Example 1-1, and subjected to western blot experiments in the same manner as in Example 1-2.

COc1ccc(-c2cc(=O)c3c(OC)cc(OC)cc3o2)cc1 [5,7,4′-trimethoxyflavone]
reduction in lipid production compared to the control (3T3-L1 preadipocytes; 20 μM, p<0.01): 28% | food intake versus control groups [1]: no significant difference | rate of weight gain at the end of eight weeks compared to the control group [1]: significantly lower

COc1cc(OC)c2c(=O)cc(-c3ccccc3)oc2c1 [5,7-dimethoxyflavone]
lipid production in 3T3-L1 adipocytes (3T3-L1 preadipocytes; 5, 10 or 20 μM, day 10 after induction of differentiation, Oil Red O, absorbance 500 nm): suppresses lipid production in 3T3-L1 adipocytes effectively | expression of SREBP1c, C/EBP, FAS and ACC [2]: reduction in the expression | expression of UCP2 and UCP3 [3]: upregulated the expression of UCP2 and UCP3 | food intake versus control groups [1]: no significant difference | rate of weight gain at the end of eight weeks compared to the control group [1]: significantly lower
